This note sets out measurements from patent publication US9475328B2, “Developer for thermally responsive record materials” (Valspar Sourcing, Inc., priority 2012, dated 2016).

One assay deals with MCF-7, clone WS8 cells. Description: MCF-7 cell proliferation assay of estrogenic activity. The assay is classed as cell-based, human. The following applies: logarithmic (base 10) Relative Proliferative Effect vs 17-beta estradiol; cell proliferation measured as total DNA; values 'expected or measured'. The source says: The MCF-7 assay is a useful test for assessing whether a polyhydric phenol compound is appreciably non-estrogenic. The MCF-7 assay uses MCF-7, clone WS8 cells to measure whether and to what extent a substance induces cell proliferation via estrogen receptor (ER)-mediated pathways. The method is described in “Test Method Nomination: MCF-7 Cell Proliferation Assay of Estrogenic Activity” submitted for validation by CertiChem, Inc. to the National Toxicology Program Interagency Center for the Evaluation of Alternative Toxicological Methods (NICEATM) on Jan. 19, 2006 (available online at http://iccvam.niehs.nih.gov/methods/endocrine/endodocs/SubmDoc.pdf).
A brief summary of the method of the aforementioned MCF-7 assay is provided below. MCF-7, clone WS8 cells are maintained at 37° C. in RMPI (Roswell Park Memorial Institute medium) containing Phenol Red (e.g., GIBCO Catalog Number 11875119) and supplemented with the indicated additives for routine culture. […] At the end of the 7 day exposure to the test chemical, the media is removed, the wells are washed once with 0.2 ml of HBSS (Hanks' Balanced Salt Solution), and then assayed to quantify amounts of DNA per well using a micro-plate modification of the Burton diphenylamine (DPA) assay, which is used to calculate the level of cell proliferation. […]

In another assay the target is T1, human estrogen receptor (Homo sapiens, UniProt P03372).
T1 sequence (P03372 1-595): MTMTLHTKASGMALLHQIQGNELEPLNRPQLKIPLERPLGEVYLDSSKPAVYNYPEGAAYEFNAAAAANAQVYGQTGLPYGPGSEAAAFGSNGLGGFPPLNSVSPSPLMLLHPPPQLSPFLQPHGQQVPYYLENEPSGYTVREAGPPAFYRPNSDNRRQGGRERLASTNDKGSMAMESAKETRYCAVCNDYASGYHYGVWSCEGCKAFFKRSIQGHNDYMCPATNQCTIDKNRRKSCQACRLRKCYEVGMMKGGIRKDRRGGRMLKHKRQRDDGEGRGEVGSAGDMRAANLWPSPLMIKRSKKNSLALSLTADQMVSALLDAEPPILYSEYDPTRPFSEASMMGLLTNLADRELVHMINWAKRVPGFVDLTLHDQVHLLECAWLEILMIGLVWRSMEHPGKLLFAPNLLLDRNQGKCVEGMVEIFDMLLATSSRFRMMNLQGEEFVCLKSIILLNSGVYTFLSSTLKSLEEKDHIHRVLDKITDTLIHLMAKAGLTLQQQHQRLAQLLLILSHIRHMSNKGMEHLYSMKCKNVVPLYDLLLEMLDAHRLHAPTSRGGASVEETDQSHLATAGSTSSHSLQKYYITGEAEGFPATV
Kind of assay: suitable in vitro assay whose results correlate with the MCF-7 assay (estrogenic activity). The assay is classed as cell-based. To be noted: in vitro assay correlated to MCF-7 assay through common reference compounds.

Regarding `C[C@]12CC[C@@H]3c4ccc(O)cc4CC[C@H]3[C@@H]1CC[C@@H]2O` [17β-estradiol], in the assay on MCF-7, clone WS8 cells, the “Log RPE” value is given as 2.00.

Turning to `Oc1ccc(Cc2ccc(O)cc2)cc1` [Bisphenol F], the “Log RPE” value with MCF-7, clone WS8 cells was −2.

`Cc1cc(Cc2cc(C)c(O)c(C)c2)cc(C)c1O` [Structure 6, 4,4′-methylenebis(2,6-dimethylphenol)]: on human estrogen receptor, the estrogenic activity entry is “do not exhibit appreciable estrogenic activity”.

As to `CCCC(c1cc(C(C)(C)C)c(O)cc1C)c1cc(C(C)(C)C)c(O)cc1C` [Structure 7, 4,4′-butylidenebis(2-t-butyl-5-methylphenol)], the estrogenic activity result at human estrogen receptor is “do not exhibit appreciable estrogenic activity”.

`CC(C)(C)c1cc(Cc2cc(C(C)(C)C)c(O)c(C(C)(C)C)c2)cc(C(C)(C)C)c1O` [Structure 8, 4,4′-methylenebis(2,6-di-t-butylphenol)]: the estrogenic activity result on human estrogen receptor is “do not exhibit appreciable estrogenic activity”.

With `Cc1cc(Cc2cc(C)cc(C(C)(C)C)c2O)c(O)c(C(C)(C)C)c1` [Structure 9], on human estrogen receptor, the estrogenic activity result was “do not exhibit appreciable estrogenic activity”.

As for `CC(C)(C)c1cc(O)c(C(C)(C)C)cc1O` [Structure 12, 2,5-di-t-butylhydroquinone], on human estrogen receptor, the estrogenic activity result is “do not exhibit appreciable estrogenic activity”.
